Read-outs that look alike come from different tables or passages of the source.
What was measured:
[1] = tested on: MDR-S. Enteritidis strains; assay: Stability assay, cationic salts (MIC)
Source text: (§4) To explore the utility of phytochemicals as therapeutic molecules and their stability, individual phytochemicals were exposed to cationic salts, and different pH levels followed by analysing their MIC and MBC values against test strains as described earlier.
(§5) Subsequent to exposure to varied conditions, the antimicrobial activity of the phytochemicals was estimated by determining their MIC and MBC values against all the selected MDR strains of EAEC, S. Enteritidis, and S. Typhimurium as described earlier.

MDR-EAEC strains [2] = assay: MIC and MBC by broth microdilution with resazurin; format: cell-based, enteroaggregative Escherichia coli; conditions: infant diarrhoea isolate
Source text: (§1) The characterised MDR field strains of EAEC (E1; E2; E3), S. Enteritidis (S1; S2; S3), and S. Typhimurium (ST1; ST2; ST3) maintained in the laboratory repository of Meat Safety Laboratory of ICAR-National Research Centre on Meat, Hyderabad re-validated using PCR assays were used to evaluate the in vitro antibacterial efficacy of phytochemicals. E. coli ATCC 25922 was used as the quality control strain.
(§2) The antimicrobial efficacy of identified phytochemicals against multi-drug resistant EAEC and NTS strains was determined by estimating the minimum inhibitory concentration (MIC) and minimum bactericidal concentrations (MBC).
(§3) Subsequent to the incubation period, resazurin dye (0.015 %) was added to all the wells to determine the dye reduction (pink) and thereby the bacterial inhibition.

MDR-EAEC strains [3] = assay: Stability assay, pH (MIC)
Source text: as §4, §5

[4] = tested on: MDR-S. Typhimurium strains; assay: MIC and MBC by broth microdilution with resazurin; format: cell-based, Salmonella Typhimurium; conditions: poultry droppings isolate
Source text: as §1, §2, §3

Haemolytic assay = format: cell-based; conditions: read-out: Haemolysis; for hemolysis at 0.5 X MIC: 0.50X MIC
Procedure: The haemolytic assay of the individual phytochemical was performed by measuring the release of haemoglobin from sheep and human ‘O’ erythrocytes at 540 nm. The percentage of haemolysis was calculated as (Asample – APBS)/ (ATriton−X – APBS) ×100, in which Asample is the absorbance of phytochemical treatment, APBS is the absorbance of untreated control with PBS, and ATriton−X is the absorbance of lysed cells treated with Triton X-100 measured at 540 nm.

MDR-EAEC strains [5] = assay: Stability assay, cationic salts (MIC)
Source text: as §4, §5

[6] = tested on: MDR-S. Typhimurium strains; assay: Stability assay, cationic salts (MIC)
Source text: as §4, §5

[7] = tested on: MDR-S. Typhimurium strains; assay: Stability assay, pH (MIC)
Source text: as §4, §5

[8] = tested on: MDR-S. Enteritidis strains; assay: MIC and MBC by broth microdilution with resazurin; format: cell-based, Salmonella Enteritidis; conditions: poultry droppings isolate
Source text: as §1, §2, §3

[9] = tested on: MDR-S. Enteritidis strains; assay: Stability assay, pH (MIC)
Source text: as §4, §5

[10] = human 'O' erythrocytes, Human RBCs

For `O=C/C=C/c1ccccc1` [Cinnamaldehyde, cinnamaldehyde], which “MIC with cationic salt” value ([1]; 2 mM MgCl2, strain S1) is on record?
The value was 0.5 µl/ml.

And the “MIC with cationic salt” value ([1]; 2 mM MgCl2, strain S2)?
Its value is 0.5 µl/ml.

What about the “MIC with cationic salt” value ([1]; 2 mM MgCl2, strain S3) of the same molecule?
The value was 0.5 µl/ml.

What about the “MIC with cationic salt” value ([1]; 150 mM NaCl, strain S1) of the same molecule?
Its value is 0.5 µl/ml.

What about the “MIC with cationic salt” value ([1]; 150 mM NaCl, strain S2) of the same molecule?
The value was 0.5 µl/ml.

What about the “MIC with cationic salt” value ([1]; 150 mM NaCl, strain S3) of the same molecule?
The value was 0.5 µl/ml.

And the MBC (MDR-EAEC strains [2]; EAEC (E1))?
The MBC was 0.50 µl/ml.

What about the MIC (MDR-EAEC strains [2]; EAEC (E1)) of the same molecule?
Its MIC is 0.50 µl/ml.

And the MBC (MDR-EAEC strains [2]; EAEC (E2))?
The MBC was 1.0 µl/ml.

What about the MIC (MDR-EAEC strains [2]; EAEC (E2)) of the same molecule?
The MIC was 0.50 µl/ml.

And the MBC (MDR-EAEC strains [2]; EAEC (E3))?
The MBC was 0.50 µl/ml.

And the MIC (MDR-EAEC strains [2]; EAEC (E3))?
The MIC was 0.25 µl/ml.

And the “MIC at given pH” value (MDR-EAEC strains [3]; pH 4, strain E1)?
Its value is 0.5 µl/ml.

And the “MIC at given pH” value (MDR-EAEC strains [3]; pH 4, strain E2)?
The value was 0.5 µl/ml.

And the “MIC at given pH” value (MDR-EAEC strains [3]; pH 4, strain E3)?
Its value is 0.5 µl/ml.

What about the “MIC at given pH” value (MDR-EAEC strains [3]; pH 6, strain E1) of the same molecule?
Its value is 0.5 µl/ml.

What about the “MIC at given pH” value (MDR-EAEC strains [3]; pH 6, strain E2) of the same molecule?
The value was 0.5 µl/ml.

And the “MIC at given pH” value (MDR-EAEC strains [3]; pH 6, strain E3)?
The value was 0.5 µl/ml.

And the “MIC at given pH” value (MDR-EAEC strains [3]; pH 8, strain E1)?
The value was 0.5 µl/ml.

What about the “MIC at given pH” value (MDR-EAEC strains [3]; pH 8, strain E2) of the same molecule?
The value was 0.5 µl/ml.

What about the “MIC at given pH” value (MDR-EAEC strains [3]; pH 8, strain E3) of the same molecule?
The value was 0.5 µl/ml.

And the MBC ([4]; S. Typhimurium (ST1))?
Its MBC is 0.50 µl/ml.

And the MIC ([4]; S. Typhimurium (ST1))?
Its MIC is 0.25 µl/ml.

And the MBC ([4]; S. Typhimurium (ST2))?
Its MBC is 0.50 µl/ml.

What about the MIC ([4]; S. Typhimurium (ST2)) of the same molecule?
The MIC was 0.25 µl/ml.

And the MBC ([4]; S. Typhimurium (ST3))?
Its MBC is 1.0 µl/ml.

What about the MIC ([4]; S. Typhimurium (ST3)) of the same molecule?
Its MIC is 0.12 µl/ml.

And the hemolysis at 0.25 X MIC (Haemolytic assay; [10])?
Its hemolysis at 0.25 X MIC is 0.554%.

And the hemolysis at 0.5 X MIC (Haemolytic assay; [10])?
Its hemolysis at 0.5 X MIC is 0.696%.

What about the hemolysis at 1 X MIC (Haemolytic assay; [10]) of the same molecule?
Its hemolysis at 1 X MIC is 2.03%.

And the hemolysis at 2 X MIC (Haemolytic assay; [10])?
Its hemolysis at 2 X MIC is 5%.

What about the hemolysis at 4 X MIC (Haemolytic assay; [10]) of the same molecule?
The hemolysis at 4 X MIC was 12.8%.

What about the hemolysis at 8 X MIC (Haemolytic assay; [10]) of the same molecule?
The hemolysis at 8 X MIC was 19.1%.

And the hemolysis at 0.25 X MIC (Haemolytic assay; sheep erythrocytes, Sheep RBCs)?
The hemolysis at 0.25 X MIC was 0.109%.

What about the hemolysis at 0.5 X MIC (Haemolytic assay; sheep erythrocytes, Sheep RBCs) of the same molecule?
The hemolysis at 0.5 X MIC was 0.274%.

And the hemolysis at 1 X MIC (Haemolytic assay; sheep erythrocytes, Sheep RBCs)?
Its hemolysis at 1 X MIC is 3.61%.

And the hemolysis at 2 X MIC (Haemolytic assay; sheep erythrocytes, Sheep RBCs)?
The hemolysis at 2 X MIC was 11.7%.

And the hemolysis at 4 X MIC (Haemolytic assay; sheep erythrocytes, Sheep RBCs)?
The hemolysis at 4 X MIC was 12.5%.

And the hemolysis at 8 X MIC (Haemolytic assay; sheep erythrocytes, Sheep RBCs)?
Its hemolysis at 8 X MIC is 22%.

What about the “MIC with cationic salt” value (MDR-EAEC strains [5]; 2 mM MgCl2, strain E1) of the same molecule?
Its value is 0.5 µl/ml.

What about the “MIC with cationic salt” value (MDR-EAEC strains [5]; 2 mM MgCl2, strain E2) of the same molecule?
Its value is 0.5 µl/ml.

And the “MIC with cationic salt” value (MDR-EAEC strains [5]; 2 mM MgCl2, strain E3)?
The value was 0.5 µl/ml.

What about the “Change of MIC values with cationic salts” value (MDR-EAEC strains [5]; 150 mM NaCl and 2 mM MgCl2, MDR-EAEC strains) of the same molecule?
The value was “remained almost similar”.

And the “MIC with cationic salt” value (MDR-EAEC strains [5]; 150 mM NaCl, strain E1)?
The value was 0.5 µl/ml.

What about the “MIC with cationic salt” value (MDR-EAEC strains [5]; 150 mM NaCl, strain E2) of the same molecule?
The value was 0.5 µl/ml.

And the “MIC with cationic salt” value (MDR-EAEC strains [5]; 150 mM NaCl, strain E3)?
Its value is 0.5 µl/ml.

And the “MIC with cationic salt” value ([6]; 2 mM MgCl2, strain ST1)?
Its value is 0.5 µl/ml.

And the “MIC with cationic salt” value ([6]; 2 mM MgCl2, strain ST2)?
The value was 0.5 µl/ml.

What about the “MIC with cationic salt” value ([6]; 2 mM MgCl2, strain ST3) of the same molecule?
Its value is 1.0 µl/ml.

And the “MIC with cationic salt” value ([6]; 150 mM NaCl, strain ST1)?
Its value is 0.5 µl/ml.

And the “MIC with cationic salt” value ([6]; 150 mM NaCl, strain ST2)?
Its value is 0.5 µl/ml.

What about the “MIC with cationic salt” value ([6]; 150 mM NaCl, strain ST3) of the same molecule?
Its value is 1.0 µl/ml.

What about the “MIC at given pH” value ([7]; pH 4, strain ST1) of the same molecule?
The value was 0.5 µl/ml.

What about the “MIC at given pH” value ([7]; pH 4, strain ST2) of the same molecule?
Its value is 1.0 µl/ml.

And the “MIC at given pH” value ([7]; pH 4, strain ST3)?
Its value is 1.0 µl/ml.

What about the “MIC at given pH” value ([7]; pH 6, strain ST1) of the same molecule?
The value was 0.5 µl/ml.

What about the “MIC at given pH” value ([7]; pH 6, strain ST2) of the same molecule?
Its value is 1.0 µl/ml.

And the “MIC at given pH” value ([7]; pH 6, strain ST3)?
Its value is 1.0 µl/ml.

What about the “MIC at given pH” value ([7]; pH 8, strain ST1) of the same molecule?
Its value is 0.5 µl/ml.

And the “MIC at given pH” value ([7]; pH 8, strain ST2)?
The value was 1.0 µl/ml.

And the “MIC at given pH” value ([7]; pH 8, strain ST3)?
Its value is 1.0 µl/ml.

And the MBC ([8]; S. Enteritidis (S1))?
Its MBC is 0.50 µl/ml.

What about the MIC ([8]; S. Enteritidis (S1)) of the same molecule?
The MIC was 0.12 µl/ml.

What about the MBC ([8]; S. Enteritidis (S2)) of the same molecule?
Its MBC is 0.50 µl/ml.

What about the MIC ([8]; S. Enteritidis (S2)) of the same molecule?
Its MIC is 0.12 µl/ml.

What about the MBC ([8]; S. Enteritidis (S3)) of the same molecule?
The MBC was 0.50 µl/ml.

And the MIC ([8]; S. Enteritidis (S3))?
The MIC was 0.12 µl/ml.

And the “MIC at given pH” value ([9]; pH 4, strain S1)?
Its value is 0.5 µl/ml.

What about the “MIC at given pH” value ([9]; pH 4, strain S2) of the same molecule?
The value was 0.5 µl/ml.

What about the “MIC at given pH” value ([9]; pH 4, strain S3) of the same molecule?
The value was 0.5 µl/ml.

And the “MIC at given pH” value ([9]; pH 6, strain S1)?
Its value is 0.5 µl/ml.

What about the “MIC at given pH” value ([9]; pH 6, strain S2) of the same molecule?
The value was 0.5 µl/ml.

What about the “MIC at given pH” value ([9]; pH 6, strain S3) of the same molecule?
Its value is 0.5 µl/ml.

What about the “MIC at given pH” value ([9]; pH 8, strain S1) of the same molecule?
The value was 0.5 µl/ml.

And the “MIC at given pH” value ([9]; pH 8, strain S2)?
Its value is 0.5 µl/ml.

And the “MIC at given pH” value ([9]; pH 8, strain S3)?
The value was 1.0 µl/ml.

Reference: publication PMC8286599 (Gut Pathogens, 2021)
